Read-outs that look alike come from different tables or passages of the source.
Assays:
[1] = test system: SARS-CoV-2-nluc, WA1/2020; conditions: inhibitor; read-out: EC50 SARS-CoV-2-nluc, Calu-3
[2] = test system: Vesicular stomatitis virus rVSV-SARS-CoV-2-S; conditions: inhibitor; read-out: EC50 rVSV-SARS-CoV-2-S, Vero
[3] = test system: Venezuelan equine encephalitis virus VEEV (TC-83); conditions: inhibitor; read-out: EC50 VEEV (TC-83), U-87 MG
[4] = test system: DENV2; parameters: DENV2 replication, plaque assay; conditions: inhibitor; read-out: EC50 DENV2, Huh7
[5] = test system: Ebola virus EBOV; conditions: 48 h; inhibitor; read-out: EC50 EBOV, Huh7
[6] = test system: Marburg virus MARV; conditions: 48 h; inhibitor; read-out: EC50 MARV, Huh7
[7] = test system: Huh7; conditions: human, huh7 cells
[8] = test system: Vesicular stomatitis virus rVSV-SARS-CoV-2-S; conditions: inhibitor; read-out: EC50 rVSV-SARS-CoV-2-S, Vero; remark: listed apart in the source
[9] = test system: SARS-CoV-2; parameters: species or system human adult lung organoid-derived monolayers; SARS-CoV-2 infectious titre in organoid supernatants, plaque assay; conditions: inhibitor; read-out: EC50 SARS-CoV-2, ALO
[10] = in vitro; conditions: human, adult lung organoid monolayer

Structure (SMILES) | EC50 [1] | EC50 [2] | EC50 [3] | EC50 [4] | EC50 [5] | EC50 [6] | CC50 [7] | EC50 [8] | EC50 [9] | CC50 [10]
COc1ccc(-c2cnc3c(C#Cc4cccnc4)snc3c2)cc1OC [RMC-113] | 1450 nM | 1800 nM | 1400 nM | 1400 nM | 5000 nM | 7800 nM | > 10000 nM |  |  | 
Cc1cccc(/C=N/Nc2cc(N3CCOCC3)nc(OCCc3ccccn3)n2)c1 [Apilimod] |  |  |  |  |  |  |  | 12 nM | 420 nM | 9900 nM
